Experimental data: PMC3602595, “The Structure of HasB Reveals a New Class of TonB Protein Fold” (PLoS ONE, 2013)
Ends that are not written are not given here.

Experiments:
HasBCTD [1] = test: ITC interaction of HasBCTD with HasR TonB box peptides; assay type: binding, Serratia marcescens
Protocol: (§1) The TonB box peptides were synthesized with free acid C- and amine N-termini by Proteogenix (Strasbourg, France).
(§2) ITC was performed at 25°C using a MicroCal VP titration calorimeter (MicroCal-GE Healthcare) under the same conditions as described previously. The buffer was 20 mM sodium phosphate, pH 7, 50 mM NaCl for all the titrations, except for experiments carried out in the presence of HasR where 20 mM sodium phosphate, pH 7, 0.08% ZW 3–14 was used.
The heat of dilution of peptide/protein injections was determined either by injecting the ligand into the buffer alone or by injecting the ligand into the cell after the saturation of the protein binding site. The value obtained was subtracted from the heat of reaction to give the effective heat of binding. The resulting titration data were analyzed using Microcal-ORIGIN software package. The molar binding stoichiometry (N), association constant (Ka; Kd = 1/Ka) and enthalpy changes (ΔH) of binding were determined by fitting the binding isotherm to a model with one set of sites. Their values are the average of three experiments. […] For HasR titration experiments with HasB, 5–8×10^−5 M of HasBCTD wild type or mutants and 3–5 µM of HasR were used.

TonBCTD = molecular target: T1, TonBCTD (Escherichia coli, UniProt P02929); test: ITC interaction of TonBCTD with TonB box peptide; assay type: binding, E. coli
T1 construct: TonBCTD (TonB C-terminal domain); made in house
Protocol: Labeled and unlabeled HasBCTD (named HasB133 in our earlier publication) were prepared as described. TonBCTD of E. coli , previously named TonB116, was prepared as already reported. HasB mutations were introduced by PCR into the plasmid encoding HasBCTD wild type with the following pairs of oligonucleotides:
as §1, §2
The heat of dilution of peptide/protein injections was determined either by injecting the ligand into the buffer alone or by injecting the ligand into the cell after the saturation of the protein binding site. The value obtained was subtracted from the heat of reaction to give the effective heat of binding. The resulting titration data were analyzed using Microcal-ORIGIN software package. The molar binding stoichiometry (N), association constant (Ka; Kd = 1/Ka) and enthalpy changes (ΔH) of binding were determined by fitting the binding isotherm to a model with one set of sites. Their values are the average of three experiments. HasBCTD/TonBCTD titrations with peptides were carried out by injecting 20–35 consecutive aliquots of 5–10 µL of a 1–1.5 mM peptide solution into the ITC cell containing 4 to 9×10^−5 M of protein solution of either HasBCTD or TonBCTD. For HasR titration experiments with HasB, 5–8×10^−5 M of HasBCTD wild type or mutants and 3–5 µM of HasR were used.

HasBCTD [2] = test: NMR chemical shift perturbation of HasBCTD by HasR TonB box peptides; assay type: binding, Serratia marcescens; conditions: for chemical shift perturbation in 15N-1H HSQC spectra of HasBCTD: NMR HSQC, 293K, 50 mM sodium phosphate buffer, pH 7, 50 mM NaCl, 15% D2O/H2O, peptide:HasBCTD ratios 1∶2 to 4∶1, CSP >0.2 ppm considered large
Protocol: All NMR experiments were recorded at 293K on a Varian 600 MHz spectrometer with a cryogenically cooled triple resonance ^1H/(^15N/^13C) PFG probe. Proton chemical shifts were referenced to 2,2-dimethyl-2-silapentane-5-sulfonate (DSS) as 0 ppm. ^15N and ^13C chemical shifts were referenced indirectly to DSS. The pulse sequences were taken as implemented in the Varian BioPack. NMR data were processed using NMRPipe/NMRDraw and spectra were analyzed using NMRViewJ and CCPNMR Analysis, [24]. The HasB samples used for NMR experiments were from 0.35 to 0.7 mM in 50 mM sodium phosphate buffer, pH 7, 50 mM NaCl and 15% D2O/H2O (v/v).
CSP values of ^1H and ^15N amide of HasBCTD were obtained after interaction with the TonB box peptide by comparing the ^1H-^15N HSQC spectra of free and bound HasBCTD as previously explained. The samples were prepared in 50 mM sodium phosphate buffer, pH 7, 50 mM NaCl and 15% D2O/H20 (v/v). Lyophilized peptides were added to the HasBCTD solution at 1∶2, 1∶1, 2∶1 and 4∶1 ratios. CSP values greater than 0.2 ppm were considered as large. For proline residues no chemical shift change can be observed because of the lack of backbone amide proton.

[3] = Conformation of 21-mer peptide in solution by 2D TOCSY, NOESY and ROESY; assay type: physicochemical; conditions: free peptide, data not shown

T1 sequence (P02929 148-239): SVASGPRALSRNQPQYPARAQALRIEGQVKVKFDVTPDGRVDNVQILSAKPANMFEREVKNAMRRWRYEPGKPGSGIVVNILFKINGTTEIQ

| Sequence | interaction with HasBCTD (in words) (HasBCTD [1]; ITC and NMR CSP) | affinity (association constant Ka) (TonBCTD; ITC, TonBCTD, 25°C, 20 mM sodium phosphate, pH 7, 50 mM NaCl, one set of sites, average of three experiments) | Kd (TonBCTD; ITC, TonBCTD, 25°C, 20 mM sodium phosphate, pH 7, 50 mM NaCl, Kd = 1/Ka) | interaction with TonBCTD (in words) (TonBCTD; same range of concentration as that used with HasBCTD) | chemical shift perturbation in 15N-1H HSQC spectra of HasBCTD (HasBCTD [2]) | affinity constant (Ka) (HasBCTD [1]; ITC, HasBCTD, 25°C, 20 mM sodium phosphate, pH 7, 50 mM NaCl, one set of sites, average of three experiments, HasBCTD 9×10^−5 M, peptide 1.5 mM) | Kd (HasBCTD [1]; ITC, HasBCTD, 25°C, 20 mM sodium phosphate, pH 7, 50 mM NaCl, Kd = 1/Ka) | location of the most substantial CSP on HasBCTD (HasBCTD [2]; 15N HSQC, 21-mer peptide) | conformation in solution [3] |
| --- | --- | --- | --- | --- | --- | --- | --- | --- | --- |
| ALDSLTVLGAGG [dodecamer peptide] | did not reveal any interaction with HasBCTD | about 2×10^4 M^−1 | 50 µM | able to bind to TonBCTD | no chemical shift perturbation could be observed | – | – | – | – |
| GDGGALALDSLTVLGAGGNNA [21-mer peptide] | – | – | – | – | several CSP were observed | 40000 M⁻¹ | 25 µM | especially along the strand β3 and on the helix H1 | unstructured in solution |
